Consider 20 compounds from patent US20190275012A9, “SUBSTITUTED THIAZOLO-PYRIDINE COMPOUNDS AS MALT1 INHIBITORS” (Lupin Limited, priority 2016, published 2019).

One test has as its system OCI-Ly-10 cells. The test is described as follows: Anticancer assay (14 days), cell viability by CCK-8. Conditions: Homo sapiens, OCI-Ly10, 336 h, 14 days treatment, fresh treatment every 5th day, CCK-8 viability, read-out: Ly-10 (14d) inhibition IC50. The class given is cell-based. Here is the method:
OCI-Ly-10 cells (UHN, Canada) seeded in culture media (IMDM+20% FBS) in 96-well plates were treated with various concentrations of the test compounds. Cells were treated for a period of 14 days (13-15 days depending on the confluency of cells) with fresh treatments every 5th day. After the first treatment, for all subsequent treatments, the cells were centrifuged, the spent media was removed and fresh media containing the test compound was added. Cell viability was assessed using CCK-8 kit (Dojindo Laboratories, China) as per manufacturer's instructions. Plates were read in colorimeter and absorbance was detected. (Detection at 450 nm; Background correction at 650 nm). % inhibition was calculated relative to the samples containing media with 0.1% DMSO alone as per the following formula

Test [1] concerns NF-kB transcriptional activity in HEK-293-NF-kB-Luc cell line overexpressing MALT1. The test is described as follows: NF-kB reporter assay (luciferase, MALT1 stably overexpressed). The settings on record: Homo sapiens, 24 h, HEK-293-NF-kB-Luc cells stably overexpressing MALT1, 24 h treatment, Bright Glo luminescence; read-out: NF-kB inhibition IC50. It counts as cell-based. The procedure, abridged:
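Inhibition of NF-κB activity was expressed relative to 0.1% DMSO wells, from luminescence after 10 min Bright Glo at ambient temperature. Compounds had been applied for 24 h to adhered MALT1-overexpressing HEK-293 NF-κB luciferase reporter cells.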

A further test has as its target T1, full length MALT1 enzyme (Homo sapiens, UniProt Q9UDY8).
T1 construct: a fluorescence based assay with full length MALT1 enzyme
T1 sequence (Q9UDY8 1-824): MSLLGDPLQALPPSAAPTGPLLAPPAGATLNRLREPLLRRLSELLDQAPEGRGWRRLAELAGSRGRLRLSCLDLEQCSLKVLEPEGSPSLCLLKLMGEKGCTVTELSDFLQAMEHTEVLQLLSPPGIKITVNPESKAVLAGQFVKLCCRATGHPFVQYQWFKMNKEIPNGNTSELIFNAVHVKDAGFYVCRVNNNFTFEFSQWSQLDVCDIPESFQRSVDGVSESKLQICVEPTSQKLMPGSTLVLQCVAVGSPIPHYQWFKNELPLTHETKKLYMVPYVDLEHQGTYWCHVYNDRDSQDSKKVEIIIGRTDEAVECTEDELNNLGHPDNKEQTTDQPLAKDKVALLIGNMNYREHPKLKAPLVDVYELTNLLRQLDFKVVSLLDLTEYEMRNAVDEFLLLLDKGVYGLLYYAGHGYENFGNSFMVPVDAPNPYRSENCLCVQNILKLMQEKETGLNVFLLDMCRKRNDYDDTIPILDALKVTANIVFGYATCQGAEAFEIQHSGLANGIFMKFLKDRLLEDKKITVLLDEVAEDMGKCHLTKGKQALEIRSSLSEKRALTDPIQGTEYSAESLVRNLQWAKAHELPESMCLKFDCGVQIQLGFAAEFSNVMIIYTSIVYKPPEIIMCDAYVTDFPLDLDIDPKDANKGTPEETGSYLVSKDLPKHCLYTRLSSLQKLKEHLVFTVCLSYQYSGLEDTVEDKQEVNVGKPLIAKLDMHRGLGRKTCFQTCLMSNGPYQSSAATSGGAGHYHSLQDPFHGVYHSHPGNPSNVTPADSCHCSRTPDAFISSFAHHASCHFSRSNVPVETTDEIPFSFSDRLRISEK
The test is described as follows: MALT1 biochemical assay (fluorescence based, Ac-Leu-Arg-Ser-Arg-AMC cleavage). The settings on record: full length MALT1 protein, 2 h pre-incubation at RT, tetrapeptide substrate Ac-Leu-Arg-Ser-Arg-AMC, read-out: Malt 1 inhibition IC50. A digest of the protocol:
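Full-length MALT1 (100-300 ng/well) was pre-incubated with compound for 2 h at RT, then 100 μM Ac-LRSR-AMC was added for 4-12 h. Buffer was 50 mM MES, 150 mM NaCl, 0.1% CHAPS, 1 M ammonium citrate, 10 mM DTT, pH 7, with 0.5% DMSO. IC50 was derived from AMC fluorescence (ex 360/em 460 nm).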

For orientation: IC50 means the concentration that gives 50% inhibition. As for `CCC(c1c(NC(=O)Nc2cnc(-n3nccn3)c(C(F)(F)F)c2)cnc2sc(C)nc12)N(C)C` (centres unmarked) [Compound 75a, 1-(6-(2H-1,2,3-Triazol-2-yl)-5-(trifluoromethyl)pyridin-3-yl)-3-(7-(1-(dimethylamino)propyl)-2-methylthiazolo[5,4-b]pyridin-6-yl)urea], the values for the IC50 (in the test on OCI-Ly-10 cells; in test [1]) were 501 to 1500 nM and 101 to 500 nM, respectively.
With `COC(C)c1c(NC(=O)Nc2ccc(-n3nccn3)c(C#N)c2)cnc2sc(C)nc12` (single isomer, unassigned) [Compound 208b, (S) or (R)-1-(3-Cyano-4-(2H-1,2,3-triazol-2-yl)phenyl)-3-(7-(1-methoxyethyl)-2-methylthiazolo[5,4-b]pyridin-6-yl)urea], the IC50 in the test on OCI-Ly-10 cells is 101 to 250 nM.
As for `COCC(CN(C)c1c(NC(=O)Nc2cnc(-n3nccn3)c(Cl)c2)cnc2sc(C)nc12)OC` (centres unmarked) [Compound 43, 1-(5-Chloro-6-(2H-1,2,3-triazol-2-yl)pyridin-3-yl)-3-(7-((2,3-dimethoxypropyl)(methyl)amino)-2-methylthiazolo[5,4-b]pyridin-6-yl)urea], the IC50 with OCI-Ly-10 cells fell in the range of 26 to 100 nM.
Regarding `COc1nc(-n2ccnn2)c(Cl)cc1NC(=O)Nc1cnc2sc(C)nc2c1C(C)OC` (single isomer, unassigned) [Compound 91b, 1-(5-Chloro-2-methoxy-6-(1H-1,2,3-triazol-1-yl)pyridin-3-yl)-3-(7-(1-methoxyethyl)-2-methylthiazolo[5,4-b]pyridin-6-yl)urea], the IC50 in the test on OCI-Ly-10 cells lay within 26 to 100 nM.
Regarding `COC1CCN(c2c(NC(=O)Nc3cnc(-n4nccn4)c(Cl)c3)cnc3sc(C)nc23)CC1` [Compound 29, 1-(5-Chloro-6-(2H-1,2,3-triazol-2-yl)pyridin-3-yl)-3-(7-(4-methoxypiperidin-1-yl)-2-methylthiazolo[5,4-b]pyridin-6-yl)urea], the IC50 is 101 to 500 nM in test [1] and 51 to 100 nM on full length MALT1 enzyme.
Regarding `Cc1nc2c(C3CC3)c(NC(=O)Nc3cnc(-n4ccnn4)c(Cl)c3)cnc2s1` [Compound 61, 1-(5-Chloro-6-(1H-1,2,3-triazol-1-yl)pyridin-3-yl)-3-(7-cyclopropyl-2-methylthiazolo[5,4-b]pyridin-6-yl)urea], the IC50 in the test with OCI-Ly-10 cells was in the range of 501 to 1500 nM.
Consider `Cc1nc2c(C3CC3)c(NC(=O)Nc3cnc(OCCC4CCN(C)CC4)c(Cl)c3)cnc2s1` [Compound 73, 1-(5-Chloro-6-(2-(1-methylpiperidin-4-yl)ethoxy)pyridin-3-yl)-3-(7-cyclopropyl-2-methylthiazolo[5,4-b]pyridin-6-yl)urea], for which the IC50 in test [1] fell in the range of 101 to 500 nM; on full length MALT1 enzyme it was 51 to 100 nM.
Regarding `COCCN(C)c1c(NC(=O)Nc2cnc(OC)c(Cl)c2)cnc2sc(C)nc12` [Compound 45, 1-(5-Chloro-6-methoxypyridin-3-yl)-3-(7-((2-methoxyethyl)(methyl)amino)-2-methylthiazolo[5,4-b]pyridin-6-yl)urea], the IC50 in the test on OCI-Ly-10 cells lay in the range of 501 to 1500 nM.
On the same count and under the same terms, then `COCCc1c(NC(=O)Nc2cnc(OC)c(Cl)c2)cnc2sc(C)nc12` [Compound 33, 1-(5-Chloro-6-methoxypyridin-3-yl)-3-(7-(2-methoxyethyl)-2-methylthiazolo[5,4-b]pyridin-6-yl)urea], with 501 to 1500 nM; and `Cc1nc2c(C(C3CC3)N(C)C)c(NC(=O)Nc3cnc(-n4nccn4)c(C(F)(F)F)c3)cnc2s1` (centres unmarked) [Compound 76a, 1-(6-(2H-1,2,3-Triazol-2-yl)-5-(trifluoromethyl)pyridin-3-yl)-3-(7-(cyclopropyl(dimethylamino)methyl)-2-methylthiazolo[5,4-b]pyridin-6-yl)urea], with 101 to 250 nM.
For the compound `CCOc1ncc(NC(=O)Nc2cnc3sc(C)nc3c2C2CC2)cc1Cl` [Compound 4, 1-(5-Chloro-6-ethoxypyridin-3-yl)-3-(7-cyclopropyl-2-methylthiazolo[5,4-b]pyridin-6-yl)urea], the figures for the IC50 (in test [1]; on full length MALT1 enzyme) were 501 to 1500 nM and 1 to 50 nM, respectively.
Consider `Cc1nc2c(C(C)O)c(NC(=O)Nc3cnc(-n4nccn4)c(C(F)(F)F)c3)cnc2s1` (single isomer, unassigned) [Compound 71b, 1-(6-(2H-1,2,3-Triazol-2-yl)-5-(trifluoromethyl)pyridin-3-yl)-3-(7-(1-hydroxyethyl)-2-methylthiazolo[5,4-b]pyridin-6-yl)urea], for which the IC50 was in the range of 1 to 100 nM in test [1] and 1 to 50 nM on full length MALT1 enzyme.
For the compound `COC(C)c1c(NC(=O)Nc2ccc(-n3ccnn3)c(Cl)c2)cnc2sc(C)nc12` (single isomer, unassigned) [Compound 198b, (S) or (R)-1-(3-Chloro-4-(1H-1,2,3-triazol-1-yl)phenyl)-3-(7-(1-methoxyethyl)-2-methylthiazolo[5,4-b]pyridin-6-yl)urea], the IC50 is 1 to 100 nM in test [1] and 1 to 50 nM at full length MALT1 enzyme.
For `COc1nc(-n2nccn2)c(Cl)cc1NC(=O)Nc1cnc2sc(C)nc2c1C(C)OC` (single isomer, unassigned) [Compound 90a, 1-(5-Chloro-2-methoxy-6-(2H-1,2,3-triazol-2-yl)pyridin-3-yl)-3-(7-(1-methoxyethyl)-2-methylthiazolo[5,4-b]pyridin-6-yl)urea], the IC50 in test [1] is 1 to 100 nM; on full length MALT1 enzyme it was 1 to 50 nM.
`COC(C)c1c(NC(=O)Nc2cnc(-n3cnnn3)c(C(F)(F)F)c2)cnc2sc(C)nc12` (single isomer, unassigned) [Compound 239, (S or R)-1-(6-(1H-Tetrazol-1-yl)-5-(trifluoromethyl)pyridin-3-yl)-3-(7-(1-methoxyethyl)-2-methylthiazolo[5,4-b]pyridin-6-yl)urea]: the values for the IC50 (in test [1]; on full length MALT1 enzyme) were 1 to 100 nM and 1 to 50 nM, respectively.
In the case of `COC(C)c1c(NC(=O)Nc2cnc(-n3nccn3)c(C(F)(F)F)c2)cnc2sc(C)nc12` (single isomer, unassigned) [Compound 142a, 1-(6-(2H-1,2,3-Triazol-2-yl)-5-(trifluoromethyl)pyridin-3-yl)-3-(7-(1-methoxyethyl)-2-methylthiazolo[5,4-b]pyridin-6-yl)urea], the half-inhibitory concentration (IC50) in test [1] fell in the range of 1 to 100 nM; on full length MALT1 enzyme, 1 to 50 nM.
For `COC(C)c1c(NC(=O)Nc2cnc(-n3cccn3)c(C(F)(F)F)c2)cnc2sc(C)nc12` (single isomer, unassigned) [Compound 213b, (S) or (R)-1-(6-(1H-Pyrazol-1-yl)-5-(trifluoromethyl)pyridin-3-yl)-3-(7-(1-methoxyethyl)-2-methylthiazolo[5,4-b]pyridin-6-yl)urea] the same measures were 1 to 100 nM and 1 to 50 nM.
`COC(C)(C)c1c(NC(=O)Nc2ccc(-n3nccn3)c(Cl)c2)cnc2sc(C)nc12` [Compound 98, 1-(3-Chloro-4-(2H-1,2,3-triazol-2-yl)phenyl)-3-(7-(2-methoxypropan-2-yl)-2-methylthiazolo[5,4-b]pyridin-6-yl)urea]: the IC50 in test [1] lay within 1 to 100 nM; at full length MALT1 enzyme, 1 to 50 nM.
Turning to `COCc1c(NC(=O)Nc2cnc(-n3nccn3)c(Cl)c2)cnc2sc(C)nc12` [Compound 176, 1-(5-Chloro-6-(2H-1,2,3-triazol-2-yl)pyridin-3-yl)-3-(7-(metdoxymethyl)-2-methylthiazolo[5,4-b]pyridin-6-yl)urea], the results for the IC50 (in test [1]; on full length MALT1 enzyme) were 101 to 500 nM and 1 to 50 nM, respectively.
Turning to `COCC1CCCN(c2c(NC(=O)Nc3cnc(OC)c(Cl)c3)cnc3sc(C)nc23)C1` (single isomer, unassigned) [Compound 51b, 1-(5-chloro-6-methoxypyridin-3-yl)-3-(7-(3-(methoxymethyl)piperidin-1-yl)-2-methylthiazolo[5,4-b]pyridin-6-yl)urea], in the test on OCI-Ly-10 cells, the IC50 lay within 501 to 1500 nM.
